SMILES strings stand for the structures.

The target in the assay is Protein farnesyltransferase (Homo sapiens, UniProt P49354+P49356). As to the kind of experiment: Inhibition of ras Farnesyltransferase. The class given is protein-complex assay.
A word on the IC50: it is the midpoint of a concentration-inhibition curve. Lower therefore signals inhibition by little substance. Compound `CC(C)=CCC/C(C)=C/CC/C(C)=C/CN[C@@H](CCC(=O)N[C@H](C(=O)N[C@@H](CC(C)C)C(=O)N[C@@H](CO)C(=O)O)C(C)C)C(=O)O` registered a concentration for half-maximal inhibition (IC50) of 3.4 µM.

Consider `CC(C)=CCC/C(C)=C/CC/C(C)=C/CN[C@H](CCC(=O)N[C@H](C(=O)N[C@@H](CC(C)C)C(=O)N[C@@H](CO)C(=O)O)C(C)C)C(=O)O`, for which the concentration for half-maximal inhibition (IC50) was 14 µM.

`CC(C)=CCC/C(C)=C/CC/C(C)=C/CC(CCCC(=O)N[C@H](C(=O)N[C@@H](CC(C)C)C(=O)N[C@@H](CO)C(=O)O)C(C)C)C(=O)O` (some centres undefined) showed a half-inhibitory concentration (IC50) of 1.2 µM.

On to `CC(C)=CCC/C(C)=C/CC/C(C)=C/CC(CCCCC(=O)N[C@H](C(=O)N[C@@H](CC(C)C)C(=O)N[C@@H](CO)C(=O)O)C(C)C)C(=O)O` (some centres undefined), for which the IC50 was found to be 1.8 µM.

In turn, `CC(C)=CCC/C(C)=C/CC/C(C)=C/CC(CCC(=O)N[C@H](C(=O)N[C@@H](CC(C)C)C(=O)N[C@@H](CO)C(=O)O)C(C)C)C(=O)NCP(=O)(O)O` (some centres undefined) returned an IC50 of 0.15 µM.

Turning to `CC(C)=CCC/C(C)=C/CC/C(C)=C/CC(CC(=O)N[C@H](C(=O)N[C@@H](CC(C)C)C(=O)N[C@@H](CO)C(=O)O)C(C)C)C(=O)O` (some centres undefined), the IC50 came out at 4.5 µM.

`CC(C)=CCC/C(C)=C/CC/C(C)=C/CCCCC(=O)N[C@H](C(=O)N[C@@H](CC(C)C)C(=O)N[C@@H](CO)C(=O)O)C(C)C`: the IC50 was > 360 µM.

On to `CC(C)=CCC/C(C)=C/CC/C(C)=C/CC(C[C@H](NC(=O)OC(C)(C)C)C(=O)N[C@H](C(=O)N[C@@H](CC(C)C)C(=O)N[C@@H](CO)C(=O)O)C(C)C)C(=O)O` (some centres undefined), for which the IC50 amounted to 20 µM.

For `CC(C)=CCC/C(C)=C/CC/C(C)=C/CC(CCC(=O)N[C@H](C(=O)N[C@@H](CC(C)C)C(=O)N[C@@H](CO)C(=O)O)C(C)C)C(=O)O` (some centres undefined), the 50% inhibitory concentration (IC50) was determined as 0.9 µM.

As for `CCOC(=O)C(C/C=C(\C)CC/C=C(\C)CCC=C(C)C)CCC(=O)N[C@H](C(=O)N[C@@H](CC(C)C)C(=O)N[C@@H](CO)C(=O)O)C(C)C` (some centres undefined), the concentration for half-maximal inhibition (IC50) is > 360 µM.

Consider `CCCCCCCCCCCCC(CCC(=O)N[C@H](C(=O)N[C@@H](CC(C)C)C(=O)N[C@@H](CO)C(=O)O)C(C)C)C(=O)O` (some centres undefined), for which the IC50 is 10 µM.

Consider `CC(C)=CCC/C(C)=C/CC/C(C)=C/CNC(=O)C(CCC(=O)N[C@H](C(=O)N[C@@H](CC(C)C)C(=O)N[C@@H](CO)C(=O)O)C(C)C)C(=O)O` (some centres undefined), for which it took 4.4 µM to reach half-maximal inhibition (IC50).

Compound `CC(C)=CCC/C(C)=C/CC/C(C)=C/C(=O)N[C@@H](CCC(=O)N[C@H](C(=O)N[C@@H](CC(C)C)C(=O)N[C@@H](CO)C(=O)O)C(C)C)C(=O)O` (stereo in doubt; 28 (L)) yielded a 50% inhibitory concentration (IC50) of 0.033 µM.

As for `CC(C)=CCC/C(C)=C/CC/C(C)=C/C(=O)N[C@@H](CCC(=O)N[C@H](C(=O)N[C@@H](CC(C)C)C(=O)N[C@@H](CO)C(=O)O)C(C)C)C(=O)O` (stereo in doubt; 29 (D)), half-maximal inhibition (IC50) required 3.4 µM.

The record behind these values is ChEMBL document CHEMBL1152035, “Rational design of potent carboxylic acid based bisubstrate inhibitors of ras farnesyl protein transferase” (Bioorg Med Chem Lett, 1994).
